{"source": "patent US9237750B2", "about": "“Ornidazole and related compounds for use as herbicides” (RAMOT AT TEL-AVIV UNIVERSITY LTD., priority 2012, dated 2016)", "key": {"Avena sterilis": {"tested_on": "Avena sterilis", "assay": "Photosynthetic quantum yield of immersed leaf blades (PAM fluorimeter)", "type": "in vivo", "details": "1 mM Ornidazole in water, 3.5 hours", "experimental": "Leaves of Avena seedlings grown in a pot (still attached to the stem) were immersed in 1 mM Ornidazole for the indicated times. The photosynthetic quantum yield under various light intensities was determined with a PAM fluorimeter. The rate of net O2 exchange was determined using a Clark-type O2 electrode (Rank Brothers Ltd, UK). Fluorescent measurements (quantum yield, photochemical and non photochemical quenching) were determined using a modulated fluorometer (PAM, Walz, Germany) as described by Schreiber et al. (Schreiber U et al., 1986. fluorometer. Photosynth Res 10, 51-62) and Snir et al. (Snir A, et al., 2006. Photosynth Res 90, 233-242). Similar results were obtained by immersion of leaf blades of the weed Avena sterilis in 1 mM Ornidazole in water. After 3.5 hours of incubation the quantum yield of photosynthesis decreased by 50% under limiting light intensity and by 85% under saturating light intensity (FIG. 4)."}, "[1]": {"target": "T1, Triose phosphate isomerase (Nostoc sp., UniProt Q8YP17)", "T1 sequence (Q8YP17 1-241)": "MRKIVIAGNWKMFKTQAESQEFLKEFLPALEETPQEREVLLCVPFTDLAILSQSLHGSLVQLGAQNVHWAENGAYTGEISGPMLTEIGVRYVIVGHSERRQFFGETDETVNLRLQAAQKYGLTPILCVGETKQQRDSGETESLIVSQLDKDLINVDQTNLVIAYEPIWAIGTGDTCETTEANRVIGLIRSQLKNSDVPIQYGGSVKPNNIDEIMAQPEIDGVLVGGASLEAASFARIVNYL", "assay": "Enzyme activity in lysed Anabaena spheroplasts treated with 0 to 2 mM Ornidazole", "type": "cell-based, Anabaena PCC7120", "parameters": "endogenous in cells; host or cells: Anabaena PCC7120 spheroplasts, lysed after treatment", "details": "30° C.", "experimental": "Filaments of Anabaena PCC7120 were incubated in a medium containing: 0.5 M sucrose, 10 mM MgCl2, 5 mM Potassium Phosphate, 10 mM MES buffer pH 6.9, 1% (weight/volume) BSA and 1 mg/ml Lysozyme for 30 to 60 min. at 30° C. The spheroplasts yield was monitored by lysis in hypotonic solution. The spheroplasts were spun down and resuspended in a medium containing 0.4 M Mannitol, 10 mM MgCl2, 5 mM Potassium Phosphate and 20 mM Hepes buffer pH 8.0.\nTo further examine the effect of Ornidazole on these enzymes, the rate of photosynthesis of Anabaena spheroplasts, incubated in a spheroplast medium under saturating light intensity and CO2 concentrations in the presence of 0 to 2 mM Ornidazole at 30° C. was determined, using an O2 electrode. GAPDH and triose-phosphate isomerase activities were determined spectrophotometrically in the spheroplasts upon lysis (200 to 300 μg chlorophyll) using a reaction medium as described in the Materials and Methods section hereinabove.\nA clear correlation was found between the reduced activity of triose phosphate isomerase and the declined rate of photosynthesis."}, "[2]": {"target": "T1, Triose phosphate isomerase", "assay": "Calvin cycle enzyme activity", "type": "biochemical, Anabaena", "parameters": "endogenous in cells; host or cells: Anabaena PCC7120 extract", "details": "1 mM Ornidazole", "experimental": "(§1) Rubisco was assayed as described by Marcus et al. (2005, ibid) and Snir et al. (2006, ibid). Phospho-ribulose kinase was assayed by conversion of phospho-ribulose to RuBP, which was determined by Rubisco dependent carboxylation with radiolabeled ^14CO2. Plant or cyanobacterial extract was incubated with medium containing 50 mM Hepes pH 8, 10 mM MgCl2, 20 mM NaH^14CO3, 1 mM DTT, 0.5 mM ribose-5-phosphate, ribose-5-phosphate isomerase and activated Rubisco. Phosphoglycerate kinase, GAPDH, FBPase and SBPase were determined as described by Leegood (Leegood R C., 1990. In: Methods in plant biochemistry, Vol 3, pp 15-37, Academic Press).\n(§2) However, analysis of Ornidazole effect on various enzymes of the Calvin cycle in Anabaena including ribulose-bisphosphate carboxylase/oxygenase (Rubisco), phosphoglycerate kinase, glyceraldehyde-3-phosphate dehydrogenase (GAPDH), triose-phosphate isomerase, aldolase, fructose and sedoheptulose bisphosphatase and phosphoribulose kinase, has shown inhibition of GAPDH and triose-phosphate isomerase (Table 2)."}, "Phosphglycerate kinase": {"target": "T2, Phosphglycerate kinase (Nostoc sp., UniProt Q8YPR1)", "T2 construct": "endogenous in cells; host or cells: Anabaena PCC7120 extract", "T2 sequence (Q8YPR1 1-400)": "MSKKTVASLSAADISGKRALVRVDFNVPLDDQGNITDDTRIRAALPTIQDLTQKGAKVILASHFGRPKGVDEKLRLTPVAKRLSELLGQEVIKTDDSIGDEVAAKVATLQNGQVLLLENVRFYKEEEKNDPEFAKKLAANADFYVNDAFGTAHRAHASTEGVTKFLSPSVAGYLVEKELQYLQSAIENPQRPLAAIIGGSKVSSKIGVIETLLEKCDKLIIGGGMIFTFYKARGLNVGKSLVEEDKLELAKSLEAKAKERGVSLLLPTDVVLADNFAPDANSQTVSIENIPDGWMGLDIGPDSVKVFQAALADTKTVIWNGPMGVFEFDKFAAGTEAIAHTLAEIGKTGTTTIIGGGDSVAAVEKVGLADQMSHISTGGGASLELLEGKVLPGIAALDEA", "assay": "Calvin cycle enzyme activity", "type": "biochemical, Anabaena", "details": "1 mM Ornidazole", "experimental": "as §1, §2"}, "[3]": {"tested_on": "Sedoheptulose bisphosphatase", "assay": "Calvin cycle enzyme activity", "type": "biochemical, Anabaena", "details": "1 mM Ornidazole", "experimental": "as §1, §2"}, "[4]": {"target": "glyceraldehyde-3-phosphate dehydrogenase (GAPDH) (Homo sapiens, UniProt P04406)", "sequence (P04406 whole entry, species assumed)": "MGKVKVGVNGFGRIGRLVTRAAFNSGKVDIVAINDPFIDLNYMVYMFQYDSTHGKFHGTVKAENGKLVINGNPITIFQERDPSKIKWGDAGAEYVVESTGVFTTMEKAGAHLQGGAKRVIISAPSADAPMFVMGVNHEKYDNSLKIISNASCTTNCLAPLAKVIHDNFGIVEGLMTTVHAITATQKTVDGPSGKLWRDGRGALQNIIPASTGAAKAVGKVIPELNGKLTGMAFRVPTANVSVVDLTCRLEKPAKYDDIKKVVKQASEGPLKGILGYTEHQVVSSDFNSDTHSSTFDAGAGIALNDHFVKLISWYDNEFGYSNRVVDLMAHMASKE", "details": "glycolytic GAPDH; cited from earlier work"}}, "data": [{"smiles": "Cc1ncc([N+](=O)[O-])n1CC(O)CCl", "note": "(centres unmarked) [Ornidazole, 1-chloro-3-(2-methyl-5-nitro-1H-imidazol-1-yl)propan-2-ol]", "values": [{"measurement": "decrease of quantum yield of photosynthesis", "setting": "Avena sterilis; limiting light intensity", "result": 50, "unit": "%"}, {"measurement": "decrease of quantum yield of photosynthesis", "setting": "Avena sterilis; saturating light intensity", "result": 85, "unit": "%"}, {"measurement": "inhibition of triose phosphate isomerase compared to GAPDH", "setting": "[1]", "result": "inhibited at lower concentrations of Ornidazole and in a concentration-dependent manner"}, {"measurement": "Activity", "setting": "[2]; Triose phosphate isomerase", "result": 0, "unit": "μmol × mg^−1chl × h^−1"}, {"measurement": "inhibition at 1000 µM", "setting": "[2]; triose-phosphate isomerase", "result": "98 to 100", "unit": "%"}, {"measurement": "Activity", "setting": "Phosphglycerate kinase", "result": 57, "unit": "μmol × mg^−1chl × h^−1"}, {"measurement": "Activity", "setting": "[3]", "result": 62, "unit": "μmol × mg^−1chl × h^−1"}, {"measurement": "inhibition of enzyme activity", "setting": "[4]", "result": "inhibits the activity"}]}]}
